Among the data in patent US20260327221A1, “INHIBITORS OF CYCLIC GMP-AMP SYNTHASE AND USES THEREOF” (Ventus Therapeutics U.S., Inc., priority 2023, published 2026) are IC50 values, retold here.

Structures are written as SMILES.

hcGAS, sequence (Q8N884 whole entry): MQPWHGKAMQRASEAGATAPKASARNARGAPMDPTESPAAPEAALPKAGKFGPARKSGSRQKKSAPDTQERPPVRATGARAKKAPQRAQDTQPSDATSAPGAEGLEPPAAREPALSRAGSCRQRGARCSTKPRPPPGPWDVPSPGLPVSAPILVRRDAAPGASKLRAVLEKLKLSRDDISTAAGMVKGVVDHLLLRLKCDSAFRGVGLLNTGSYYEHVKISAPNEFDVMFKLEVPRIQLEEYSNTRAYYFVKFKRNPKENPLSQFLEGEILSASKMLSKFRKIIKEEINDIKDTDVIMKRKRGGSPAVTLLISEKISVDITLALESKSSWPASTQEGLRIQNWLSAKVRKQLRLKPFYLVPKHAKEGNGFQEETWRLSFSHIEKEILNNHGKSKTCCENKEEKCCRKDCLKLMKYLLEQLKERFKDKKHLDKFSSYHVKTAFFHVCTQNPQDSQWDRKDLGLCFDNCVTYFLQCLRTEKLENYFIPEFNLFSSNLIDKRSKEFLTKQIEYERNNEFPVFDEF

In the assay the target is hcGAS (Homo sapiens, UniProt Q8N884). The experiment in a line: hcGAS LCMS assay (direct measurement of cGAMP production by LC/MS). It is filed as biochemical. As to conditions: 4 h incubation with enzyme and substrates; cGAMP production by LC/MS; class symbols; read-out: hcGAS LCMS IC50. The gist of the method:
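Enzyme, substrates (ATP, GTP) and compound incubated 4 h, then quenched with acetonitrile/water containing 0.15 uM 13C/15N-labeled cGAMP internal standard. cGAMP formed quantified directly by LC/MS on HILIC amide column; IC50 values reported in potency bins.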
The IC50 is the concentration at which inhibition is half-maximal. Take `COCCOc1c(-c2ncccc2OC2CC2)cc(C(=O)Nc2nnc(-n3nccc3N)s2)oc1=O` [Compound 70, N-(5-(5-amino-1H-pyrazol-1-yl)-1,3,4-thiadiazol-2-yl)-4-(3-cyclopropoxypyridin-2-yl)-3-(2-methoxyethoxy)-2-oxo-2H-pyran-6-carboxamide]: the 50% inhibitory concentration (IC50) fell in the range of 0.5 to 1 nM.
With `COc1cccc(OC)c1-c1cc(C(=O)Nc2nnc(-n3nccc3N)s2)oc(=O)c1OCCN1CC2(CCS2)C1` [Compound 72, 3-(2-(1-thia-6-azaspiro[3.3]heptan-6-yl)ethoxy)-N-(5-(5-amino-1H-pyrazol-1-yl)-1,3,4-thiadiazol-2-yl)-4-(2,6-dimethoxyphenyl)-2-oxo-2H-pyran-6-carboxamide], the IC50 lay within 0.5 to 1 nM.
In the case of `COCCOc1c(-c2c(C#N)cccc2OC(F)F)cc(C(=O)Nc2nnc(-n3nccc3N)s2)oc1=O` [Compound 74, N-(5-(5-amino-1H-pyrazol-1-yl)-1,3,4-thiadiazol-2-yl)-4-(2-cyano-6-(difluoromethoxy)phenyl)-3-(2-methoxyethoxy)-2-oxo-2H-pyran-6-carboxamide] it was 0.5 to 1 nM; in that of `COc1cccc(OC)c1-c1cc(C(=O)Nc2nnc(-n3nccc3N)s2)oc(=O)c1OCCN1CCSCC1=O` [Compound 75, N-(5-(5-amino-1H-pyrazol-1-yl)-1,3,4-thiadiazol-2-yl)-4-(2,6-dimethoxyphenyl)-2-oxo-3-(2-(3-oxothiomorpholino)ethoxy)-2H-pyran-6-carboxamide], 0.5 to 1 nM.
`COc1cccc(OC)c1-c1cc(C(=O)Nc2nnc(-n3nccc3N)s2)oc(=O)c1OCCCN1CCSCC1` [Compound 88, N-(5-(5-amino-1H-pyrazol-1-yl)-1,3,4-thiadiazol-2-yl)-4-(2,6-dimethoxyphenyl)-2-oxo-3-(3-thiomorpholinopropoxy)-2H-pyran-6-carboxamide]: the IC50 fell in the range of 0.5 to 1 nM.
To `COc1cccc(OC)c1-c1cc(C(=O)Nc2nnc(-n3nccc3N)s2)oc(=O)c1OCCN1CCCSCC1` [Compound 89, 3-(2-(1,4-thiazepan-4-yl)ethoxy)-N-(5-(5-amino-1H-pyrazol-1-yl)-1,3,4-thiadiazol-2-yl)-4-(2,6-dimethoxyphenyl)-2-oxo-2H-pyran-6-carboxamide] belongs 0.5 to 1 nM; to `COc1cccc(OC)c1-c1cc(C(=O)Nc2nnc(-n3nccc3N)s2)oc(=O)c1OCC(=O)N1CCSCC1` [Compound 90, N-(5-(5-amino-1H-pyrazol-1-yl)-1,3,4-thiadiazol-2-yl)-4-(2,6-dimethoxyphenyl)-2-oxo-3-(2-oxo-2-thiomorpholinoethoxy)-2H-pyran-6-carboxamide], under 0.5 nM; to `COc1cccc(OC)c1-c1cc(C(=O)Nc2nnc(-n3nccc3N)s2)oc(=O)c1OCCN1C2CSCC1C2` [Compound 94, 3-(2-(3-thia-6-azabicyclo[3.1.1]heptan-6-yl)ethoxy)-N-(5-(5-amino-1H-pyrazol-1-yl)-1,3,4-thiadiazol-2-yl)-4-(2,6-dimethoxyphenyl)-2-oxo-2H-pyran-6-carboxamide], 0.5 to 1 nM.
In the case of `COc1cccnc1-c1cc(C(=O)Nc2nnc(-n3nccc3N)s2)oc(=O)c1O[C@@H](C)CO` [Compound 107A, (S)—N-(5-(5-amino-1H-pyrazol-1-yl)-1,3,4-thiadiazol-2-yl)-3-((1-hydroxypropan-2-yl)oxy)-4-(3-methoxypyridin-2-yl)-2-oxo-2H-pyran-6-carboxamide] it was 1 to 5 nM; in that of `COc1cccnc1-c1cc(C(=O)Nc2nnc(-n3nccc3N)s2)oc(=O)c1O[C@H](C)CO` [Compound 107B, (R)-N-(5-(5-amino-1H-pyrazol-1-yl)-1,3,4-thiadiazol-2-yl)-3-((1-hydroxypropan-2-yl)oxy)-4-(3-methoxypyridin-2-yl)-2-oxo-2H-pyran-6-carboxamide], 0.5 to 1 nM.
Turning to `COc1cccc(OC)c1-c1cc(C(=O)Nc2nnc(-n3nccc3N)s2)oc(=O)c1O[C@H]1CC[C@H](O)CC1` [Compound 108A, N-(5-(5-amino-1H-pyrazol-1-yl)-1,3,4-thiadiazol-2-yl)-4-(2,6-dimethoxyphenyl)-3-(((1r,4r)-4-hydroxycyclohexyl)oxy)-2-oxo-2H-pyran-6-carboxamide], the 50% inhibitory concentration (IC50) is under 0.5 nM.
To `COc1cccc(OC)c1-c1cc(C(=O)Nc2nnc(-n3nccc3N)s2)oc(=O)c1O[C@H]1CC[C@@H](O)CC1` [Compound 108B, N-(5-(5-amino-1H-pyrazol-1-yl)-1,3,4-thiadiazol-2-yl)-4-(2,6-dimethoxyphenyl)-3-(((1s,4s)-4-hydroxycyclohexyl)oxy)-2-oxo-2H-pyran-6-carboxamide] belongs 1 to 5 nM.
